Here are results for 4 compounds from patent publication US20190183798A1, “METHOD FOR TREATING TUMOR” (Johnpro Biotech Inc., priority 2016, published 2019).

For test [1], the system named is HepG2 cells. In words: Absorption of dextran, CT-B or transferrin in HepG2 cells under specified treatments (flow cytometry), with or without wortmannin. The format is cell-based. The method, then: In the treatment of wortmannin, an inhibitor of macropinocytosis pathway, the HepG2 cells were treated with phosphate-buffered saline (PBS) or wortmannin at 37° C. for 15 minutes. After the administration of dextran, the cells were applied with 37° C. treatment, 42° C. treatment or mEHT treatment for 1 hour.
The cells were analyzed by flow cytometry.

For test [2], the system named is HepG2 cells. In words: Absorption/retention of lipo-dox in HepG2 cells under specified treatments (flow cytometry, confocal microscopy). As to conditions: 37° C., 42° C. and mEHT treatments compared.

In the case of dextran, in test [1] (all treatment groups (37° C., 42° C. and mEHT), 1 mg/ml dextran), the “Absorption of dextran to the cells compared with control group” value was “enhanced absorption”. In test [1] (mEHT treatment versus 37° C. and 42° C. treatments), the “Fluorescence signal of dextran in cells treated with mEHT” value is listed as “highest fluorescence signals”.
Take “CT-B: particle about 100 nm used as tested drug for endocytosis uptake”: the “Absorption of CT-B by the cell compared with control group” value in test [1] (all treatment groups (37° C., 42° C. and mEHT), 2 μg/ml CT-B) is recorded as “enhanced absorption”.
As to `COc1cccc2c1C(=O)c1c(O)c3c(c(O)c1C2=O)C[C@@](O)(C(=O)CO)C[C@@H]3O[C@H]1C[C@H](N)[C@H](O)[C@H](C)O1` [dox, doxorubicin], the “Enhancement of the absorption of dox without liposome encapsulation” value in test [2] is “no obvious difference among the tested treatments”.
Take transferrin: the “Absorption of transferrin by the cell compared with control group” value in test [1] (all treatment groups (37° C., 42° C. and mEHT), 5 μg/ml transferrin) is “enhanced absorption”.
